Measured values from paper PMC8905628, “Integrin α6-Targeted Molecular Imaging of Central Nervous System Leukemia in Mice” (Frontiers in Bioengineering and Biotechnology, 2022).

Key:
[1] = system: NALM6-luciferase tumor-bearing mice; assay: T1-weighted MR imaging of NALM6-luciferase tumor-bearing mice (CNS-L); type: in vivo, NOD/SCID mice; conditions: 0.03 mmol of Gd/kg, tail vein, 3.0 T, baseline and 5, 10, 15 min post-injection
Protocol: The human ALL cell lines including NALM6, Reh, Jurkat, and CCRF-CEM were purchased from the American Type Culture Collection (ATCC) and cultured in RPMI 1640 medium supplemented with 10% fetal bovine serum and 0.5% penicillin–streptomycin and incubated at 37 °C/5%CO2. To facilitate tumor monitoring, luminescent cells NALM6-luciferase were generated by stable transfection with luciferase. Female NOD/SCID mice (6 weeks old) were purchased from Vita River, Charles River Laboratories, China (Beijing, China). NOD/SCID mice were injected via the tail vein with 1 × 10^6 luciferased cells suspended in 150 µl of sterile phosphate-buffered saline (PBS). Bioluminescence imaging was applied to monitor the leukemic burden. All animal experiments were approved by the Institutional Animal Care and Use Committee (IACUC) at the Sun Yat-sen University Cancer Center (IACUC approval number L102012020070M), and the welfare and treatment of the laboratory animals were in accordance with the corresponding animal management regulations.
Bioluminescence confirmed CNS-L mice were used for MR and PET imaging studies in the next few days after the NIRF imaging. MR imaging was performed using a Philips Achieva 3.0 T system. Mice were anesthetized with 2,2,2-Tribromoethanol ([…]), fixed on the holder, and placed into the mouse-imaging coil. […]

NALM6 cells = assay: Immunofluorescence / confocal microscopy of S5 peptide in NALM6 cells; type: cell-based, human
Protocol: Approximately 1 × 10^6 NALM6 cells were seeded on cover slips in 24-well plates and incubated for 24 h. Subsequently, the 80 μM S5 peptide was added into the culture medium and incubated with cells for 4 h, while the blank control group was added to the same volume of RPMI 1640 medium. After that, cells of each group were washed with PBS five times, fixed with 4% paraformaldehyde for 15 min, permeabilized with 0.1% Triton X-100 (Sigma-Aldrich, Germany), and blocked with 1% BSA for 30 min. The cover slips were incubated with the anti-integrin α6 antibody (Abcam, ab181551) at 4°C overnight, followed by incubation with streptavidin-Cy3 (Thermo Fisher 434315, United States) and the goat anti-mouse Alexa Fluor 488 secondary antibody (Abcam, ab150113) for 1 h at room temperature in a dark chamber. Finally, cover slips were incubated with 1 μg/ml DAPI and mounted with slides with ProLong gold antifade (Invitrogen P26930, United States). Fluorescence images were visualized and captured under a confocal microscopy confocal laser-scanning system (Zeiss, LSM980, Germany) at 40× and 100× magnification. Co-localization was analyzed by ImageJ (http://rsbweb.nih.gov/ij/) and the co-localization finder plug-in.

integrin α6 = conditions: cited from earlier work
Text: We further translated the RWY peptide into an integrin α6-targeted PET probe and MRI probe that have been successfully applied for tumor imaging of the integrin α6 expression ([Feng GK et al., 2019]; [Xiao et al., 2019]; [Zhang Y et al., 2020]; [Gao et al., 2020]). Recently, our group improved the characteristics of the peptide by alanine scanning and obtained a novel integrin α6-targeting peptide […] (dubbed S5) which ...

[2] = system: Human ITGA6 & ITGB4 Heterodimer Protein; assay: Microscale thermophoresis affinity of S5 peptides; type: binding; conditions: cyclic vs straight S5 peptide; preliminary experiments, Supplementary Figures S2A, S2B; MST, Monolith NT.115, protein 100 nM, peptide from 100 uM diluted 1:1, PBST, 80 % LED/excitation power, medium MST power
Protocol: The affinity of cyclic S5 peptide, straight S5 peptide, NOTA-S5 and Gd-S5 with Human ITGA6 & ITGB4 Heterodimer Protein (Manufactured by Sino Biological Catalog Number: CT069-H2508H) was determined by microscale thermophoresis (MST). Firstly, 0.05% PBST was prepared, 25ul of Tween 20 was added to 50ml of PBS and filtered through 0.22um filter paper. Then dilute the peptide: dissolve the above 4 peptides into 1mM storage solution concentration. Take 20 ul of peptide and mix with 80 ul of PBST and dilute to a working concentration of […]. Next dilute the dye: Take 2 µL of RED-tris-NTA II dye (Manufactured by NanoTemper Cat# MO-L018 5 µM) and mix with 98 µl of PBST to obtain 100 µL of dye (100 nM). Finally, 100 ul of Human ITGA6 & ITGB4 Heterodimer Protein (400 nM) was mixed with 100 ul of dye (100 nM) and incubated at room temperature for 30 min, at which time the protein concentration was 200 nM. 10 ul of peptide (200 uM) was added to the PCR tube, and 16 tubes were diluted 1:1 with PBST. Then take 3 ul of protein/dye mixture in the PCR tube, add 3 ul of […] concentrations of peptide and mix well. The concentration of protein was 100 nM and the concentration of peptide in the first tube was 100 uM. […] Kd was calculated by Kd fitting mode using MO.Affinity Analysis.

For `O=C([O-])CN(CCN(CC(=O)[O-])CC(=O)O)CCN(CC(=O)[O-])CC(=O)O.[Gd+3]` [Gd-DTPA, gadolinium-diethylenetriamine pentaacetic acid], the MR enhancement signals [1] was “did not show obvious enhancement signals”.
With CRWYDANAC [S5] the “cellular uptake of the S5 peptide” value (NALM6 cells; 80 μM S5 peptide, 4 h, green fluorescence) was “entered the cytoplasm through cytocytosis after binding to the cell membrane”, the “cellular localization of the S5 peptide” value (NALM6 cells; 80 μM S5 peptide, 4 h of co-culturing, fluorescence microscopy) was “enriched and localized at the nuclei of NALM6 cells” and the “location of integrin α6 and the S5 peptide confirmed by confocal microscopy (Discussion)” value (NALM6 cells; NALM6 cells, as summarised in Discussion) was “dominating membrane location”. The “specificity and affinity to integrin α6” value (integrin α6; vs RWY, obtained by alanine scanning, ref Mei et al., 2020, Lin et al., 2021) was “higher specificity and affinity” and the “binding of cyclic and straight peptides compared” value [2] was “equivalent”.
For CRWYDENAC [reference compound], the “binding to integrin α6” value (integrin α6; identified by phage display technology, ref Feng G et al., 2019) is given as “could bind specifically to integrin α6”.
